Blank lines part the entries; values can stand above or below the molecule they belong to.
Tests used:
[1] = target: T1, KEAP1 (Kelch-like ECH-associated protein 1) (Homo sapiens, UniProt Q14145); test: ITC with recombinant full-length KEAP1; SPR showed PYR modestly increases DLG(W24C) peptide binding to the Kelch domain
T1 construct: human recombinant KEAP1 (Gln2-Cys624)

[2] = target: T2, Kelch fragment (Ala321-Glu611 of human KEAP1 protein) (human, UniProt Q14145 321-611, biotinylated (site not stated)); test: SPR; Biacore S200; biotinylated Kelch immobilised on a streptavidin chip; DLG peptides as analytes, 2-fold dilutions from 200 uM to 0.39 uM; 30 uL/min, 90 s association, 180 s dissociation; analysis at 15 °C; also run with PYR mixed into the analyte with the DLG peptides; conditions: both partners purified
T2 construct: Kelch-like ECH-associated protein 1 (KEAP1), human, Kelch fragment Ala321-Glu611; printed MW 34,038.03 Da; The printed mass (34,038.03 Da) looks larger than residues 321-611 alone, so extra residues or a tag for biotinylation may be present; also called Kelch domain; Kelch domain fragment of KEAP1; source: expressed in vitro, purified, biotinylated, validated by LC-MS
T2 sequence (Q14145 321-611): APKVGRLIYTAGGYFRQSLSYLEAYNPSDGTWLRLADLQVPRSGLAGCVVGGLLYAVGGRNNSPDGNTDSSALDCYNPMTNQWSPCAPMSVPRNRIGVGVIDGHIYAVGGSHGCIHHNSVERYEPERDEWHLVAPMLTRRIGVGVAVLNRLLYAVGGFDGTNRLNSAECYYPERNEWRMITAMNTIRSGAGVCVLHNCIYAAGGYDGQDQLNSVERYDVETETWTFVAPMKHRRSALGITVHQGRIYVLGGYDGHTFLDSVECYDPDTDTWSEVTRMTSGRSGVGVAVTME

T1 sequence (Q14145 2-624): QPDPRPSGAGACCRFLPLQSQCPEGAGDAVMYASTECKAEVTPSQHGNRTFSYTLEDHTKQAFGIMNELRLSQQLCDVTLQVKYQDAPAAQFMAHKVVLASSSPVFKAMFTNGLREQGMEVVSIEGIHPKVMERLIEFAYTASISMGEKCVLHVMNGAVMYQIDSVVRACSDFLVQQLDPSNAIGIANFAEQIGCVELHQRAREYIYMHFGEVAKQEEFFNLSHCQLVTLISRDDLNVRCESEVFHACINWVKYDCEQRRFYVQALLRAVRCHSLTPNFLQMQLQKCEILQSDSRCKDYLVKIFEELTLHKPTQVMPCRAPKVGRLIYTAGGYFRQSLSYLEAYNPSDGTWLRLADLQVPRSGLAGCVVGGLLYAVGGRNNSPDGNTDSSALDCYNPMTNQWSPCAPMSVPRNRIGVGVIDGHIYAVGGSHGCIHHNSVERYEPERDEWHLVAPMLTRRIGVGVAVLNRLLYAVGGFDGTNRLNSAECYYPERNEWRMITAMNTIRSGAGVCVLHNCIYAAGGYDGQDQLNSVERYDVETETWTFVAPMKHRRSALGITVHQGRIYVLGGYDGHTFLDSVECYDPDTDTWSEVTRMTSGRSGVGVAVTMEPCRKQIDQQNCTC

- Kd [1]: 13 µM
Molecule: CCc1nc(N)nc(N)c1-c1ccc(Cl)cc1 [PYR, pyrimethamine]

- binding result [2]: binds
B1: DLG^WT peptide (NRF2 residues 17-40) (peptide)
peptide: MDLIDILWRQDIDLGVSREVFDFS
notes: nuclear factor erythroid 2-related factor 2 (NRF2, NFE2L2), residues 17-40 with the DLG motif; also called DLG-containing NRF2 peptide; source: synthetic peptide

Reference: article PMC13163009, “Pyrimethamine Restores KEAP1-Mediated Degradation of Select NRF2 Mutants in Esophageal Squamous Cell Carcinoma” (Cancers, 2026)
